Measurements published in the NIST ThermoML archive (doi:10.1021/acs.jced.5b00412).

Details: 101.3 kPa, Liquid, Vibrating tube method

NCCCO [3-amino-1-propanol]
Details | mass density [kg/m3]
293.15 K | 987.5
298.15 K | 983.6
303.15 K | 979.6
308.15 K | 975.5
313.15 K | 971.5
318.15 K | 967.5
323.15 K | 963.4
328.15 K | 959.3
333.15 K | 955.8
338.15 K | 951.7
343.15 K | 947.6
348.15 K | 943.5
353.15 K | 939.3
